Like-named read-outs stand apart in the source and are kept apart here.
What was measured:
[1] = system: MRP2 (over-expressed in the cells); assay: Growth inhibition assay (96 h); assay type: cell-based, human; conditions: human, HEK293 cells over-expressing MRP2 (HEK293-MRP2); HEK293-MRP2, MRP2 over-expressed, 96 h
HEK293-MRP2 = assay: Growth inhibition assay (96 h); assay type: cell-based, human; conditions: for resistance factor (ratio of IC50 resistant subline to parental cell line): HEK293-MRP2 vs HEK293-pcDNA3.1
MES-SA/DX5 xenografts = assay: In vivo antitumor efficacy, MES-SA/DX5 xenograft; conditions: MES-SA/DX5 xenograft, 5 mg/kg, q2d, i.p.
Description: (§1) The control group was treated with vehicle (10% DMSO in PEG300).

PC-3 cells [2] = assay: Indirect immunofluorescence microscopy of microtubules; assay type: cell-based, human; conditions: 24 h, anti-α-tubulin-FITC
Description: PC-3 cells were plated on poly-D-lysine coated glass cover slips in 6-well plates (5×10^4 cells/well) the day before treatment. After cells were incubated with cytotoxic agents at 37° C. for 24 h, cells were fixed on the cover slips with 4% formaldehyde in PBS for 10 min and permeabilized by 2% Triton-X in PBS for 5 min at rt. Fixed cells were blocked with 3% bovine serum albumin in TBST for 30 min and incubated with anti-α-tubulin-FITC antibody (1:100 dilution) at 4° C. overnight. Cover slips were mounted on slides using mounting medium with 4′,6-diamidino-2-phenylindole (DAPI), followed by microscopic analysis with a Zeiss Axioplan 2 fluorescent microscope (Carl Zeiss, Thornwood, N.Y.). Images were acquired with a Zeiss Axiocam HRc, using Zeiss AxioVision.

MCF-7 [3] = assay: Growth inhibition assay (SRB, 96 h); assay type: cell-based; conditions: Homo sapiens, MCF7; MCF-7, 96 h
Description: (§2) MTT (3-(4,5-dimethylthiazol-2-yl)-2,5-diphenyltetrazolium bromide) assay was also used for the leukemia cell lines. […] Cells were stained with SRB solution or MTT solution.

HT-29 [4] = assay: Growth inhibition assay (SRB, 96 h); assay type: cell-based; conditions: Homo sapiens, HT-29, 96 h
Description: as §2

TSU-Pr1 = assay: Growth inhibition assay (SRB, 96 h); assay type: cell-based; conditions: Homo sapiens, TSU-Pr1, 96 h
Description: as §2

PC-3 = assay: Growth inhibition assay (SRB, 96 h); assay type: cell-based, human; conditions: Homo sapiens, PC-3, 96 h
Description: as §2

HEK293-pcDNA3.1 = assay: Growth inhibition assay (96 h); assay type: cell-based, human; conditions: HEK293-pcDNA3.1 (control for MRP)
Description: as §2

MES-SA/DX5 = assay: Growth inhibition assay (96 h); assay type: cell-based, human; conditions: MES-SA/DX5 vs MES-SA (P-gp)
Description: as §2

[5] = system: human cancer cell lines from prostate, colon, breast, and bladder; assay: Cell proliferation by SRB assay, panel of cell lines; assay type: cell-based; conditions: read-out: IC50 values, range over cell lines
Description: as §2
Cell proliferation was measured by SRB assay.

K562 [6] = assay: Growth inhibition assay (MTT, 96 h); assay type: cell-based; conditions: Homo sapiens, K562 (parental)
Description: as §2

HEK293-MRP1 = assay: Growth inhibition assay (96 h); assay type: cell-based, human; conditions: for resistance factor (ratio of IC50 resistant subline to parental cell line): HEK293-MRP1 vs HEK293-pcDNA3.1
[7] = system: MRP1 (over-expressed in the cells); assay: Growth inhibition assay (96 h); assay type: cell-based, human; conditions: human, HEK293 cells over-expressing MRP1 (HEK293-MRP1); HEK293-MRP1, MRP1 over-expressed, 96 h
MES-SA xenografts = assay: In vivo antitumor efficacy, MES-SA xenograft; design: species or system mice; conditions: 5 mg/kg, q2d, i.p.
Description: as §1

PC-3 xenografts = assay: In vivo antitumor efficacy, PC-3 xenograft; conditions: 5 mg/kg
K562/Dox [8] = assay: Growth inhibition assay (MTT, 96 h); assay type: cell-based, human
Description: as §2

PC-3 cells [9] = assay: Cell cycle analysis (PI staining, FACS); assay type: cell-based, human; conditions: Homo sapiens; PC-3, 24 h, 0.1 nM to 1 μM; read-out: EC50 of cell cycle arrest in G2M phase
Description: Cell cycle distribution was determined by propidium iodide (PI) staining. Treated cells were washed with PBS and fixed with 70% ice-cold ethanol overnight. Fixed cells were then stained with 20 μg/mL of PI in the presence of RNase A (300 μg/mL) at 37° C. for 30 min. Cell cycle distribution was analyzed by fluorescence-activated cell sorting (FACS).

K562/Dox [10] = assay: Cell viability MTT assay, 96 h; assay type: cell-based; conditions: Homo sapiens, doxorubicin-resistant
Description: (§3) Cells were seeded in 96-well plates and incubated with different concentrations of compound 13, 68 or other anticancer drugs for 96 h. Cell viability was quantitated by MTT assay. […] Table 4 is a comparison of the IC50 of compounds 13, 68 and other anticancer drugs in the K562 and doxorubicin-resistant K562/DOX cell lines.

K562 [11] = assay: Cell viability MTT assay, 96 h; assay type: cell-based; conditions: Homo sapiens
Description: as §3

HEK293-pcDNA3-10 = assay: Growth inhibition assay (96 h); assay type: cell-based, human; conditions: HEK293-pcDNA3-10 (control for BCRP)
Description: as §2

HEK293-482R2 = assay: Growth inhibition assay (96 h); assay type: cell-based, human; conditions: HEK293-482R2, BCRP over-expressed, 96 h
MCF-7 [12] = conditions: MCF-7 cells, literature value (Rose 1995); cited from earlier work
HT-29 [13] = conditions: HT-29 cells, literature value (Rose 1995); cited from earlier work
PC-3 xenograft = assay: Antitumor activity in PC-3 xenograft; assay type: in vivo, Balb/c mice; conditions: 15 mg/kg/d for 4 days
Description: PC-3 tumor cells (2×10^6 cells) were suspended in saline and injected S.C. in both flanks of recipient mice (n=15). Tumor size was measured every other day and volume calculated as V=π/6*(length)x(width)^2 (75). […] Tumor growth and body weight was monitored every other day for the remainder of the study.

In the case of CC(=O)O[C@@]12CO[C@@H]1C[C@H](O)[C@@]1(C)C(=O)[C@H](O)C3=C(C)[C@@H](OC(=O)[C@H](O)[C@@H](NC(=O)OC(C)(C)C)c4ccccc4)C[C@@](O)([C@@H](OC(=O)c4ccccc4)[C@H]21)C3(C)C [Docetaxel], the IC50 at 96 h [1] is reported as 33.1 ± 4 nM, the “resistance factor (ratio of IC50 resistant subline to parental cell line)” value (HEK293-MRP2) is reported as “(7.6)” and the “resistance factor (ratio of IC50 resistant subline to parental cell line)” value (HEK293-MRP2; listed as docetaxel) is reported as 7.6. The “TGI (tumor growth inhibition)” value (MES-SA/DX5 xenografts) was 9%, the “microtubule changes by immunofluorescence” value (PC-3 cells [2]) was “stabilization of microtubules” and the IC50 (MCF-7 [3]) was 3.8 ± 0.8 nM. It also gave an IC50 (HT-29 [4]) of 4.1 ± 0.2 nM, an IC50 (TSU-Pr1) of 2.6 ± 0.9 nM and an IC50 (PC-3) of 6 nM. For the same compound, the IC50 (HEK293-pcDNA3.1; Homo sapiens) was 4.4 ± 2 nM, the “resistance factor (ratio of IC50 resistant subline to parental cell line)” value (MES-SA/DX5) was “(13)” and the IC50 [5] was 1.1 to 6.3 nM. The IC50 (K562 [6]) was 2.7 ± 1 nM, the “resistance factor (ratio of IC50 resistant subline to parental cell line)” value (HEK293-MRP1) was “(7.2)” and the “resistance factor (ratio of IC50 resistant subline to parental cell line)” value (HEK293-MRP1; listed as docetaxel) was 7.2. For the same compound, the IC50 at 96 h [7] was 31.3 ± 5 nM, the “TGI (tumor growth inhibition)” value (MES-SA xenografts) was 54% and the “end of study survival rate” value (PC-3 xenografts; PC-3 xenograft, 2 days/week) was “less than 30%”. For the same compound, the “mice survived after 3 weeks” value (PC-3 xenografts; male, nu/nu, mouse, in vivo, 3 weeks) was 70%, the IC50 (K562/Dox [8]; Homo sapiens, K562/Dox, P-gp over-expressed, 96 h) was 548 ± 76 nM and the “resistance factor (ratio of IC50 resistant subline to parental cell line)” value (K562/Dox [8]; K562/Dox vs K562 (P-gp)) was “(203)”. It also gave an EC50 (PC-3 cells [9]) of 14 nM.

Work on COc1cccc2c1C(=O)c1c(O)c3c(c(O)c1C2=O)C[C@@](O)(C(=O)CO)C[C@@H]3O[C@H]1C[C@H](N)[C@H](O)[C@H](C)O1 [Doxirubicin] yielded an IC50 (K562/Dox [10]) of 859 ± 26.8 nM and an IC50 (K562 [11]) of 27.1 ± 5.5 nM.

Compound CCc1c2c(nc3ccc(O)cc13)-c1cc3c(c(=O)n1C2)COC(=O)[C@]3(O)CC [SN-38] has an IC50 (HEK293-MRP2; HEK293-MRP2, MRP2 over-expressed, 96 h) of 12.4 ± 1 nM, an IC50 (HEK293-pcDNA3.1) of 8.4 ± 1 nM and an IC50 (HEK293-pcDNA3-10) of 2.9 ± 0.3 nM. The IC50 (HEK293-482R2) was 94.3 ± 20 nM and the IC50 (HEK293-MRP1; HEK293-MRP1, MRP1 over-expressed, 96 h) was 17.7 ± 1 nM.

In the case of CC(=O)O[C@H]1C(=O)[C@@]2(C)[C@H]([C@H](OC(=O)c3ccccc3)[C@]3(O)C[C@H](OC(=O)[C@H](O)[C@@H](NC(=O)c4ccccc4)c4ccccc4)C(C)=C1C3(C)C)[C@]1(OC(C)=O)CO[C@@H]1C[C@@H]2O [Taxol], the IC50 (MCF-7 [12]) is listed as roughly 2.5 nM, the IC50 (K562/Dox [10]) is listed as 1480 ± 480 nM and the IC50 (K562 [11]) is listed as 12.2 ± 0.2 nM. The IC50 (HT-29 [13]) was roughly 2.5 nM, the PC-3 xenograft growth (PC-3 xenograft) was “potently suppressed” and the body weight (PC-3 xenograft) was “significant decreases in body weight”.

Reference: US20120022121A1, “INDOLES, DERIVATIVES AND ANALOGS THEREOF AND USES THEREFOR” (priority 2007, published 2012)
